Test results: patent publication US10442793B2, “Oxa spiro derivative, preparation method therefor, and applications thereof in medicines” (Jiangsu Hengrui Medicine Co., Ltd., priority 2015, dated 2019)
Read-outs that look alike come from different tables or passages of the source.

Columns and labels:
Format in all cases: cell-based
μ-opioid receptors (MOR) = molecular target: T1, μ-opioid receptors (MOR) (Homo sapiens, UniProt P35372); assay: MOR activity test: HEK293/MOR/CRE luciferase reporter, agonizing MOR and affecting downstream cAMP levels; conditions: for Emax: HEK293, maximum effect of TRV-130 is 100%, read-out: Emax on agonizing MOR receptor and affecting cAMP levels
T1 construct: host or cells: HEK293
Text: The compounds of the present invention can activate μ-opioid receptors (MOR). Activated MOR can regulate intracellular cAMP levels, and cAMP enters the nucleus and binds to the CRE region of the reporter gene luciferase, thereby initiating the expression of the reporter gene. Luciferase can react with its substrate to emit fluorescence, and the measured fluorescence signals reflect the agonistic activity of the compounds.
The activity of the test example compounds on agonizing MOR and affecting downstream cAMP levels was tested by the following method.
MOR/pcDNA3.1 (+) and CRE/pGL4.29 were transferred into HEK293 cells. G418 and hygromycin were added into the culture medium, and HEK293/MOR/CRE monoclonal cell lines were screened in a 96-well cell culture plate.
HEK293/MOR/CRE monoclonal cells were cultured in a DMEM/high glucose medium (10% FBS, 1 mg/ml G418, 200 μg/ml hygromycin, mixed uniformly), and passaged every 3 days. On the day of the experiment, a cell suspension was prepared with a fresh cell medium, added to a 96 well plate (BD, #356692) with 20,000 cells/well, and incubated in 5% CO2 at 37° C. On the second day, the compound was dissolved in pure DMSO at a concentration of 20 mM, then formulated with DMSO to a first concentration of 4 mM and diluted in 10 fold concentration gradient to 6 concentrations. Then, 90 μl of DMSO was added to blank and control wells. Then, formulated compound was prepared by adding 2.5 μl of the compound solutions formulated in DMSO at a gradient concentration to 97.5 μl of a fresh cell culture medium containing 5 μM foscolin. Then, 10 μl of the formulated compound was added to the cell culture plate to make the final concentration of the compound 10000, 1000, 100, 10, 1, 0.1, or 0.01 nM, and the plate was incubated at 37° C., in 5% CO2 for 5 hours. In a 96-well cell culture plate, 100 μl of luciferase assay solution (Promega, # E6110) was added to each well. The plate was placed in the dark at room temperature for 10-15 minutes, blowed and aspirated 10 times, and 100 μl were pipetted to a 96 well white plate. The chemiluminescence signal values were read in a microplate reader (PE, Victor3), and the read data was processed using software.
The activity of the compounds of the present invention on agonizing MOR and affecting downstream cAMP levels was determined by the above test, and the EC50 values are shown in Table 1.1.

hERG potassium channel = molecular target: T2, hERG potassium channel (Homo sapiens, UniProt Q12809); assay: Blocking of hERG potassium current, automatic patch clamp on HEK293-hERG cells
T2 construct: expressed in transfected cells; host or cells: HEK293
Experimental: The blocking effect of the compounds of the present invention and the positive compound TRV-130 (Journal of Pharmacology and Experimental Therapeutics, Volume 344, Issue 3, Pages 708-717, 2013) on hERG potassium current was tested on a stable cell line transfected with hERG potassium channel using an automatic patch clamp.
HEK293-hERG stabilized cells were subcultured at a density of 1:4 in a MEM/EBSS medium (10% FBS, 400 μg/ml G418, 1% MEM nonessential amino acid solution (100×), 1% sodium pyruvate solution) for 48-72 hours, then the automatic patch clamp experiment was performed. The cells were digested with 0.25% trypsin on the day of the experiment, then the cells were collected by centrifugation and resuspended with extracellular fluid (140 mM NaCl, 4 mM KCl, 1 mM MgCl2, 2 mM CaCl2, 5 mM D-glucose monohydrate, 10 mM Hepes, pH 7.4, 298 mOsmol) into a cell suspension. The cell suspension was placed on the cell bank of the Patchliner instrument, and the cells were added to the chip (NPC-16) by the negative pressure controller of the Patchliner instrument, with negative pressure attracting individual cells to the small hole of the chip. After the whole cell model was formed, the instrument generated the hERG current according to the preset hERG current and voltage program, and then the instrument perfused the compound from low concentration to high concentration automatically. HEAK Patchmaster, HEAK EPC10 patch clamp amplifier (Nanion), Pathliner software, and a data analysis software provided by Pathcontrol HTsoftware were used to analyze the current of the compounds at different concentrations and the current of the blank control.
The blocking effect of the compounds of the present invention on hERG potassium current was determined by the above test, and the IC50 values are shown in Table 3.

MOR receptor = molecular target: T3, MOR receptor (Homo sapiens, UniProt P35372); assay: Activation of the β-arrestin signaling pathway of MOR receptor (CHO-K1 OPRM1 β-Arrestin cells, DiscoveRX); conditions: for Emax: maximum effect of morphine is 100%
T3 construct: host or cells: CHO-K1
Experimental: The experiment objective is to determine the activity of the compounds of the present invention on activating the β-arrestin signaling pathway of MOR receptor.
The drug was prepared as a 20 mM stock solution that was later diluted with 100% DMSO to a 200×concentration gradient, and then diluted with a 20-fold AssayComplete™ Cell Plating 2 Reagent (93-0563R2B, DiscoveRX) medium. The cell culture plate inoculated on the first day was taken out, and 10 μl of the diluted drug or control (0.5% DMSO) was added to each well. The plate was gently shaken and placed in an incubator at 37° C., 5% CO2 for 90 minutes. Finally, 50 μL of a detection reagent (93-0001, DiscoveRX) were added to each well, and the plate was placed at room temperature for 60 minutes. The absorbance values were measured by the cold light model of a microplate reader (PE, Victor3). The EC50 values of the compounds were calculated by Graphpad Prism software according to each concentration of the compound and the corresponding signal value.

[1] = HEK293/MOR/CRE cells, 5 h incubation, forskolin, read-out: EC50 on agonizing MOR receptor and affecting cAMP levels
[2] = HEK293-hERG cells, automatic patch clamp, read-out: IC50 on blocking hERG potassium current
[3] = CHO-K1 OPRM1 β-Arrestin cells, 90 minutes, read-out: EC50 on the β-arrestin signaling pathway

T1 sequence (P35372 whole entry): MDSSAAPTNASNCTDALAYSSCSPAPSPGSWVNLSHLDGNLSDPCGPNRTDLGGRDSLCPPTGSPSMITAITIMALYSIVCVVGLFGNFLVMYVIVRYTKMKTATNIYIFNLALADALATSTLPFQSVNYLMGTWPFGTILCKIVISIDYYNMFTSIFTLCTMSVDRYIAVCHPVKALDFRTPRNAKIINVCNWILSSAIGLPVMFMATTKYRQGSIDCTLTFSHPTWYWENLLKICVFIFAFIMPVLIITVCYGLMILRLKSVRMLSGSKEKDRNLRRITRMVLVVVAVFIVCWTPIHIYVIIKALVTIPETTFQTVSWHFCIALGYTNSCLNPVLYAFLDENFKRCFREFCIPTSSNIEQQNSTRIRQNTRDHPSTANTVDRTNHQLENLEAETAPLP
T3 sequence (P35372 whole entry): as above
T2 sequence (Q12809 whole entry): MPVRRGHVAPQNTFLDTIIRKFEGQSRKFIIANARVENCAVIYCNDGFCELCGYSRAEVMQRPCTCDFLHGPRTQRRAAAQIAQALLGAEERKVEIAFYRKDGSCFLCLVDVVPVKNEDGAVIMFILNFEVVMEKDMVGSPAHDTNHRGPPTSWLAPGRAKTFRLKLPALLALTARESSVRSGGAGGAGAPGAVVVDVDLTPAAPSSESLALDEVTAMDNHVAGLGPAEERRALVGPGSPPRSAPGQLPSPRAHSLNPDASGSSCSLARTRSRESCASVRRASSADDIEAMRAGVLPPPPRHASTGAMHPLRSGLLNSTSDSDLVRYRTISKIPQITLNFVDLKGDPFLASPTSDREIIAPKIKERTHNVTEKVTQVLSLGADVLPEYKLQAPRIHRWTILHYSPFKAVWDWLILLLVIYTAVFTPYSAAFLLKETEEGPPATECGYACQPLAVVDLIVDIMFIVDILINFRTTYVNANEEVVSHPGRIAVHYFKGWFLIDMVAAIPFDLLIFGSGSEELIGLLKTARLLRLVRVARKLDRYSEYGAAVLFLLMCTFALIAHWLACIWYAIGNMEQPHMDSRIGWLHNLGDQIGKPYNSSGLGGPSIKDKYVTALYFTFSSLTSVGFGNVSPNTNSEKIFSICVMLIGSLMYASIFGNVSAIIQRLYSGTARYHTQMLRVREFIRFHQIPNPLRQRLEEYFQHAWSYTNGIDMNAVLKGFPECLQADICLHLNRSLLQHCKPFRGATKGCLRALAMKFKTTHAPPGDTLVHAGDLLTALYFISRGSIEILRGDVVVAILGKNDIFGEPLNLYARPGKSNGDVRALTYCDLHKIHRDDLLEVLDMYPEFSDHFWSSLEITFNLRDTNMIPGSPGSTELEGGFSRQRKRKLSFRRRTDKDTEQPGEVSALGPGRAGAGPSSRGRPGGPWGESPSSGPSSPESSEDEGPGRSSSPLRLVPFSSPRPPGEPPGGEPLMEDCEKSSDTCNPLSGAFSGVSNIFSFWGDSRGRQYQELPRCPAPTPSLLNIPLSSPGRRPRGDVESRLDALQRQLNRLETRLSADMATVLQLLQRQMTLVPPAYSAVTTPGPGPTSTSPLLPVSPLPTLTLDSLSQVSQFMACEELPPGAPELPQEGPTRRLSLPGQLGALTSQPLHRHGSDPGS

Structure (SMILES)	EC50 (μ-opioid receptors (MOR)) [nM]	Emax (μ-opioid receptors (MOR)) [%]	IC50 (hERG potassium channel) [nM]	EC50 (μ-opioid receptors (MOR); [1]) [nM]	IC50 (hERG potassium channel; [2]) [nM]	EC50 (MOR receptor; [3]) [nM]	Emax (MOR receptor) [%]	EC50 (MOR receptor) [nM]
c1ccc([C@]2(CCN[C@H]3CCOc4ccccc43)CCOC3(CCCC3)C2)nc1 (single isomer, unassigned) [Example 5]	5	122	6200	–	–	–	–	–
CCN1CC[C@H](NCC[C@@]2(c3ccccn3)CCOC3(CCCC3)C2)c2ccccc21 [Example 1, (S)-1-ethyl-N-(2-((R)-9-(pyridin-2-yl)-6-oxaspiro[4.5]decan-9-yl)ethyl)-1,2,3,4-tetrahydroquinolin-4-amine]	–	102	–	10	13000	4	12	–
CCN1CC[C@@H](NCC[C@@]2(c3ccccn3)CCOC3(CCCC3)C2)c2ccccc21 [Example 2, (R)-1-ethyl-N-(2-((R)-9-(pyridin-2-yl)-6-oxaspiro[4.5]decan-9-yl)ethyl)-1,2,3,4-tetrahydroquinolin-4-amine]	–	0	–	> 10000	–	> 10000	4	–
O[C@@H]1Cc2ccccc2[C@H]1NCC[C@@]1(c2ccccn2)CCOC2(CCCC2)C1 [Example 3, (1R,2R)-1-((2-((R)-9-(pyridin-2-yl)-6-oxaspiro[4.5]decan-9-yl)ethyl)amino)-2,3-dihydro-1H-inden-2-ol]	2	124	> 30000	–	–	–	–	–
c1ccc([C@]2(CCN[C@H]3CCOc4ccccc43)CCOC3(CCCC3)C2)nc1 [Example 6, (S)-N-(2-((R)-9-(pyridin-2-yl)-6-oxaspiro[4.5]decan-9-yl)ethyl)chroman-4-amine]	1	115	3800	–	–	–	–	–
O[C@H]1CC[C@H](NCC[C@@]2(c3ccccn3)CCOC3(CCCC3)C2)c2ccccc21 [Example 12, (1S,4S)-4-((2-((R)-9-(pyridin-2-yl)-6-oxaspiro[4.5]decan-9-yl)ethyl)amino)-1,2,3,4-tetrahydronaphthalen-1-ol]	2	125	10200	–	–	–	–	–
O[C@@H]1CC[C@H](NCC[C@@]2(c3ccccn3)CCOC3(CCCC3)C2)c2ccccc21 [Example 13, (1R,4S)-4-((2-((R)-9-(pyridin-2-yl)-6-oxaspiro[4.5]decan-9-yl)ethyl)amino)-1,2,3,4-tetrahydronaphthalen-1-ol]	8	130	13500	–	–	–	–	–
c1ccc([C@]2(CCN[C@H]3CCc4ccccc43)CCOC3(CCCC3)C2)nc1 [Example 16, (S)-N-(2-((R)-9-(pyridin-2-yl)-6-oxaspiro[4.5]decan-9-yl)ethyl)-2,3-dihydro-1H-inden-1-amine]	9	122	10000	–	–	–	9	94
c1ccc([C@]2(CCN[C@H]3CCC4(SCCS4)c4ccccc43)CCOC3(CCCC3)C2)nc1 [Example 24, (S)-N-(2-((R)-9-(pyridin-2-yl)-6-oxaspiro[4.5]decan-9-yl)ethyl)-3′,4′-dihydro-2′H-spiro[[1,3]dithiolane-2,1′-naphthalen]-4′-amine]	–	102	–	0.8	2500	6	30	–
C=C1CC[C@H](NCC[C@@]2(c3ccccn3)CCOC3(CCCC3)C2)c2ccccc21 [Example 28, (S)-4-methylene-N-(2-((R)-9-(pyridin-2-yl)-6-oxaspiro[4.5]decan-9-yl)ethyl)-1,2,3,4-tetrahydronaphthalen-1-amine]	–	–	–	–	–	–	22	15
N#CCO[C@H]1CC[C@H](NCC[C@@]2(c3ccccn3)CCOC3(CCCC3)C2)c2ccccc21 [Example 29, 2-(((1S,4S)-4-((2-((R)-9-(pyridin-2-yl)-6-oxaspiro[4.5]decan-9-yl)ethyl)amino)-1,2,3,4-tetrahydronaphthalen-1-yl)oxy)acetonitrile]	–	112	–	7	–	33	32	–
c1ccc([C@]2(CCN[C@H]3CCC4(OCCO4)c4ccccc43)CCOC3(CCCC3)C2)nc1 [Example 33, (S)-N-(2-((R)-9-(pyridin-2-yl)-6-oxaspiro[4.5]decan-9-yl)ethyl)-3,4-dihydro-2H-spiro[naphthalen-1,2′-[1,3]dioxolane]-4-amine]	–	–	–	–	–	–	27	–
CCCO[C@H]1CC[C@H](NCC[C@@]2(c3ccccn3)CCOC3(CCCC3)C2)c2ccccc21 [Example 34, (1S,4S)-4-propoxy-N-(2-((R)-9-(pyridin-2-yl)-6-oxaspiro[4.5]decan-9-yl)ethyl)-1,2,3,4-tetrahydronaphthalen-1-amine]	–	–	–	–	–	16	10	–
COc1ccsc1CNCC[C@@]1(c2ccccn2)CCOC2(CCCC2)C1 [TRV-130, reference compound]	–	–	1600	–	–	–	–	–
